Like-named read-outs stand apart in the source and are kept apart here.

The target in this test is T1, human CTPS1 (Homo sapiens, UniProt P17812).
T1 construct: FLAG (with GG linker); His8 (with GG linker); purchased Proteros biostructures GmbH
T1 sequence (P17812 1-591): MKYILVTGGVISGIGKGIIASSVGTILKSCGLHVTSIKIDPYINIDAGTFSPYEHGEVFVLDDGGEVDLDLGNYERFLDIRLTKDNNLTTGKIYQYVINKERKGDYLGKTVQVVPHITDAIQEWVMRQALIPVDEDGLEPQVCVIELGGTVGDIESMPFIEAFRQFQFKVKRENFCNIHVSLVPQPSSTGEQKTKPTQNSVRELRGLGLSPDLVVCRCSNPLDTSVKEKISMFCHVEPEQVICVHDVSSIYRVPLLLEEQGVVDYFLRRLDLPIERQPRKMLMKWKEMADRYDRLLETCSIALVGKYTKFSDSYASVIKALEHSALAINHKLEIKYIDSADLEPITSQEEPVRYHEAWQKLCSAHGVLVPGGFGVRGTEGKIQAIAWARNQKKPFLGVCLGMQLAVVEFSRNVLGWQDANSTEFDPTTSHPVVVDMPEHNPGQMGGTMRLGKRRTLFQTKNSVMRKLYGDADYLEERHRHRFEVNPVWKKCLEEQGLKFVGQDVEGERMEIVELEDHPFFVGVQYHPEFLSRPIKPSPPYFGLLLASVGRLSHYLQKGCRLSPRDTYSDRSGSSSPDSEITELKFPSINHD
As to the kind of experiment: Human CTPS1 enzyme inhibition, ADP-Glo Max assay. In kind it is biochemical. Summed up: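 Read-out is ADP-Glo Max luminescence: residual ATP depleted (60 min), then produced ADP converted back to ATP for luciferase detection (60 min). Beforehand, protein and compound were mixed for 10 min at 25 °C in Tris buffer pH 8.0 with MgCl2, Tween-20 and 2 mM L-cysteine. Results expressed as percentage inhibition per concentration.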
For orientation: ADP-Glo turns the ADP formed in a reaction into a luminescent signal.

Setting [1] is: ADP-Glo Max assay, Table 10, read-out: Human CTPS1 Enzyme Inhibition, IC50 grouped by potency range (CTPS1).

As for `CCC(C(=O)Nc1ccc(-c2cncc(C(F)(F)F)n2)cc1)c1csc(NS(=O)(=O)C2CC2)n1` (single isomer, unassigned) [T106, 2-(2-(cyclopropanesulfonamido)thiazol-4-yl)-N-(4-(6-(trifluoromethyl)pyrazin-2-yl)phenyl)butanamide], the IC50 under setting [1] is less than 0.1 µM. The same measure, in the same setting: next, `CC(C)(C(=O)Nc1ccc(-c2cccnc2C(F)(F)F)cc1)c1csc(NS(=O)(=O)C2CC2)n1` [T248, 2-(2-(cyclopropanesulfonamido)thiazol-4-yl)-2-methyl-N-(4-(2-(trifluoromethyl)pyridin-3-yl)phenyl)propanamide]: 1 to 10 µM. Still for that read-out and setting: next, `CC(C)(C(=O)Nc1ncc(-c2cccnc2)cc1F)c1csc(NS(=O)(=O)C2CC2)n1` [T227, 2-(2-(cyclopropanesulfonamido)thiazol-4-yl)-N-(5-fluoro-[3,3′-bipyridin]-6-yl)-2-methylpropanamide]: 0.1 to 1 µM. Turning to `CCOc1cncc(-c2ccc(NC(=O)C3(c4ccnc(NS(=O)(=O)CC)n4)CCN(C(=O)COC)CC3)nc2)n1` [P296], for the setting “Table 12, ADP-Glo Max assay, read-out: CTPS1 (Human CTPS1 Enzyme Inhibition data grouped by potency range)”, the IC50 is less than 0.1 µM. Consider `COc1cc(-c2cncc(Cl)c2)ccc1NC(=O)C(C)(C)c1csc(NS(=O)(=O)C2CC2)n1` [T256, N-(4-(5-chloropyridin-3-yl)-2-methoxyphenyl)-2-(2-(cyclopropanesulfonamido)thiazol-4-yl)-2-methylpropanamide], for which the IC50 under setting [1] is less than 0.1 µM. Regarding `CCC(CC)(C(=O)Nc1ccc(-c2cnccn2)cc1)c1csc(NS(=O)(=O)C2CC2)n1` [T122, 2-(2-(cyclopropanesulfonamido)thiazol-4-yl)-2-ethyl-N-(4-(pyrazin-2-yl)phenyl)butanamide], the IC50 under setting [1] was less than 0.1 µM. On the same count and under the same terms, next, `CC(C)(C(=O)Nc1ncc(-c2cccnc2)cn1)c1csc(NS(=O)(=O)C2CC2)n1` [T37, 2-(2-(cyclopropanesulfonamido)thiazol-4-yl)-2-methyl-N-(5-(pyridin-3-yl)pyrimidin-2-yl)propanamide]: 0.1 to 1 µM; `CCC(C(=O)Nc1ccc(-c2cncc(F)c2)cc1)c1csc(NS(=O)(=O)C2CC2)n1` (single isomer, unassigned) [T72, 2-(2-(cyclopropanesulfonamido)thiazol-4-yl)-N-(4-(5-fluoropyridin-3-yl)phenyl)butanamide]: less than 0.1 µM; `O=C(Cc1csc(NS(=O)(=O)C2CC2)n1)Nc1ccc(-c2cncc(CO)c2)cc1` [T45, 2-(2-(cyclopropanesulfonamido)thiazol-4-yl)-N-(4-(5-(hydroxymethyl)pyridin-3-yl)phenyl)acetamide]: 0.1 to 1 µM. The same measure, in the same setting: next, `COC(C(=O)Nc1ccc(-c2cncc(C(F)(F)F)n2)cc1F)c1csc(NS(=O)(=O)C2CC2)n1` (single isomer, unassigned) [T458, 2-(2-(cyclopropanesulfonamido)thiazol-4-yl)-N-(2-fluoro-4-(6-(trifluoromethyl)pyrazin-2-yl)phenyl)-2-methoxyacetamide]: less than 0.1 µM. As to `CC(C)(C(=O)Nc1ccc(-c2cncc(OCC(F)(F)F)c2)cc1F)c1csc(NS(=O)(=O)C2CC2)n1` [T132, 2-(2-(cyclopropanesulfonamido)thiazol-4-yl)-N-(2-fluoro-4-(5-(2,2,2-trifluoroethoxy)pyridin-3-yl)phenyl)-2-methylpropanamide], the IC50 under setting [1] lay in the range of 0.1 to 1 µM. Regarding `O=C(Cc1csc(NS(=O)(=O)C2CC2)n1)Nc1ccc(-c2cccnc2)nc1` [T67, N-([2,3′-bipyridin]-5-yl)-2-(2-(cyclopropanesulfonamido)thiazol-4-yl)acetamide], the IC50 under setting [1] was in the range of 0.1 to 1 µM. The same measure, in the same setting: next, `COc1cncc(-c2ccc(NC(=O)C(C)(C)c3csc(NS(=O)(=O)C4CC4)n3)c(C)c2)c1` [T285, 2-(2-(cyclopropanesulfonamido)thiazol-4-yl)-N-(4-(5-methoxypyridin-3-yl)-2-methylphenyl)-2-methylpropanamide]: less than 0.1 µM; `CC(C)(C(=O)Nc1ccc(-c2cncc(OC(F)F)c2)cc1F)c1csc(NS(=O)(=O)C2CC2)n1` [T139, 2-(2-(cyclopropanesulfonamido)thiazol-4-yl)-N-(4-(5-(difluoromethoxy)pyridin-3-yl)-2-fluorophenyl)-2-methylpropanamide]: less than 0.1 µM. The same measure, in the same setting: the same measure for `COc1cc(NC(=O)C(C)(C)c2csc(NS(=O)(=O)C3CC3)n2)ccc1-c1cccnc1` [T150, 2-(2-(cyclopropanesulfonamido)thiazol-4-yl)-N-(3-methoxy-4-(pyridin-3-yl)phenyl)-2-methylpropanamide]: 0.1 to 1 µM; for `COc1cc(F)cc(-c2ccc(NC(=O)C(C)(C)c3csc(NS(=O)(=O)C4CC4)n3)nc2)c1` [T233, 2-(2-(cyclopropanesulfonamido)thiazol-4-yl)-N-(5-(3-fluoro-5-methoxyphenyl)pyridin-2-yl)-2-methylpropanamide]: 1 to 10 µM. The same measure, in the same setting: next, `COc1cc(-c2cncc(C(F)(F)F)c2)ccc1NC(=O)C(C)(C)c1csc(NS(=O)(=O)C2CC2)n1` [T259, 2-(2-(cyclopropanesulfonamido)thiazol-4-yl)-N-(2-methoxy-4-(5-(trifluoromethyl)pyridin-3-yl)phenyl)-2-methylpropanamide]: less than 0.1 µM.

Regarding `CCOc1cncc(-c2cnc(NC(=O)C(C)(C)c3csc(NS(=O)(=O)C4CC4)n3)c(F)c2)n1` [T111, 2-(2-(cyclopropanesulfonamido)thiazol-4-yl)-N-(5-(6-ethoxypyrazin-2-yl)-3-fluoropyridin-2-yl)-2-methylpropanamide], the IC50 under setting [1] is less than 0.1 µM. On the same count and under the same terms, the same measure for `COc1cncc(-c2ccc(NC(=O)C3(c4csc(NS(=O)(=O)C5CC5)n4)CCCC3)cc2)n1` [T130, 1-(2-(cyclopropanesulfonamido)thiazol-4-yl)-N-(4-(6-methoxypyrazin-2-yl)phenyl)cyclopentane-1-carboxamide]: less than 0.1 µM. Same read-out and setting: the same measure for `CC(C)(C(=O)Nc1ncc(-c2cncc(C#N)n2)cc1F)c1csc(NS(=O)(=O)C2CC2)n1` [T113, N-(5-(6-cyanopyrazin-2-yl)-3-fluoropyridin-2-yl)-2-(2-(cyclopropanesulfonamido)thiazol-4-yl)-2-methylpropanamide]: 1 to 10 µM; for `COc1cncc(-c2ccc(NC(=O)C(OC)c3csc(NS(=O)(=O)C4CC4)n3)cc2)n1` (single isomer, unassigned) [T107, 2-(2-(cyclopropanesulfonamido)thiazol-4-yl)-2-methoxy-N-(4-(6-methoxypyrazin-2-yl)phenyl)acetamide]: less than 0.1 µM.

For the molecule `CC(C)(C(=O)Nc1ccc(-c2cncc(OCC(F)(F)F)n2)cc1)c1csc(NS(=O)(=O)C2CC2)n1` [T127, 2-(2-(cyclopropanesulfonamido)thiazol-4-yl)-2-methyl-N-(4-(6-(2,2,2-trifluoroethoxy)pyrazin-2-yl)phenyl)propanamide], the IC50 under setting [1] was less than 0.1 µM. Same read-out and setting: next, `CCOc1cncc(-c2ccc(NC(=O)Cc3csc(NS(=O)(=O)C4CC4)n3)c(F)c2)n1` [T423, 2-(2-(cyclopropanesulfonamido)thiazol-4-yl)-N-(4-(6-ethoxypyrazin-2-yl)-2-fluorophenyl)acetamide]: less than 0.1 µM; `CCOc1cncc(-c2ccc(NC(=O)C(C)(C)c3csc(NS(=O)(=O)C4CC4)n3)c(F)c2)c1` [T125, 2-(2-(cyclopropanesulfonamido)thiazol-4-yl)-N-(4-(5-ethoxypyridin-3-yl)-2-fluorophenyl)-2-methylpropanamide]: less than 0.1 µM.

For the molecule `CCOc1cncc(-c2ccc(NC(=O)C(C)(C)c3csc(NS(=O)(=O)C4CC4)n3)cc2)n1` [T52, 2-(2-(cyclopropanesulfonamido)thiazol-4-yl)-N-(4-(6-ethoxypyrazin-2-yl)phenyl)-2-methylpropanamide], under setting [1], the IC50 was less than 0.1 µM. Same read-out and setting: the same measure for `CC(C)(C(=O)Nc1ccc(-c2cncc(C(F)(F)F)n2)cc1)c1csc(NS(=O)(=O)C2CCC2)n1` [T308, 2-(2-(cyclobutanesulfonamido)thiazol-4-yl)-2-methyl-N-(4-(6-(trifluoromethyl)pyrazin-2-yl)phenyl)propanamide]: 0.1 to 1 µM. In the case of `CC(C)(C(=O)Nc1ccc(-c2cccnc2)cc1)c1csc(NS(C)(=O)=O)n1` [T163, 2-methyl-2-(2-(methylsulfonamido)thiazol-4-yl)-N-(4-(pyridin-3-yl)phenyl)propanamide], the IC50 under setting [1] is 0.1 to 1 µM. Still for that read-out and setting: next, `CCOc1cncc(-c2ccc(NC(=O)C(C)(C)c3csc(NS(=O)(=O)C(F)(F)F)n3)cc2)n1` [T296, N-(4-(6-ethoxypyrazin-2-yl)phenyl)-2-methyl-2-(2-((trifluoromethyl)sulfonamido)thiazol-4-yl)propanamide]: 0.1 to 1 µM; `CC(C)(C(=O)Nc1ccc(-c2cncc(OC3CC3)n2)cn1)c1csc(NS(=O)(=O)C2CC2)n1` [T142, 2-(2-(cyclopropanesulfonamido)thiazol-4-yl)-N-(5-(6-cyclopropoxypyrazin-2-yl)pyridin-2-yl)-2-methylpropanamide]: less than 0.1 µM.

The values are drawn from US20230086703A1, “N-(4-(5-chloropyridin-3-yl)phenyl)-2-(2-(cyclopropanesulfonamido)pyrimidin-4-yl) butanamide derivatives and related compounds as human CTPS1 inhibitors for the treatment of proliferative diseases” (Step Pharma S.A.S., priority 2019, published 2023).
